# pIC50: −log10 of the molar value.
# Target: recombinant human SAE enzyme (Homo sapiens (Human), UniProt Q9UBT2)
# Experiment: SAE HTRF enzyme assay
# Type: biochemical
# Conditions: for Percent Inhibition: Concentration 0.111 μM; for pIC50: class symbols A/B/C
# How it was run: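 Enzyme reaction: 50 mM HEPES pH 7.5, 5 mM MgCl2, 250 μM GSH, 0.05% BSA, 0.5 μM ATP, 0.01 μM Ubc9-GST, 0.125 μM Sumo-Flag, 0.11 nM SAE; 105 min, 24° C. Stop/detect, 2 h, then HTRF. % inh or IC50.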
# recombinant human SAE enzyme, sequence (Q9UBT2 whole entry): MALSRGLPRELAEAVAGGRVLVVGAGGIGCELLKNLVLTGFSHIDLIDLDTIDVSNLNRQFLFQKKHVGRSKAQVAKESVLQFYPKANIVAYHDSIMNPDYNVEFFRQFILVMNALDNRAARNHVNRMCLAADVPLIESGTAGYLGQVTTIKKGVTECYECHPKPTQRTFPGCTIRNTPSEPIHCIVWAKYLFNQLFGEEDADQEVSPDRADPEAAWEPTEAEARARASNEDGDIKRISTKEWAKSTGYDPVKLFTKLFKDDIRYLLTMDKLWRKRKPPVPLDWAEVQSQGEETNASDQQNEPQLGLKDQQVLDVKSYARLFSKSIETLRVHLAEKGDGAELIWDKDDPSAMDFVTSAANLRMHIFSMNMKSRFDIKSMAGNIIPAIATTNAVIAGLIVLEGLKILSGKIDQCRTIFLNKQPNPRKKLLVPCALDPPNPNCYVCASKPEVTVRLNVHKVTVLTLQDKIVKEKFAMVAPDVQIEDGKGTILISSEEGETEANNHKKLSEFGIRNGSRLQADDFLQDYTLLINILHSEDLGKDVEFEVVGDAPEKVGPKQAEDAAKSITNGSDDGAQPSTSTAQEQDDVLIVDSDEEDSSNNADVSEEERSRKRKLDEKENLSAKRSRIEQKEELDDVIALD
# recombinant human SAE enzyme, sequence (Q9UBE0 whole entry partner): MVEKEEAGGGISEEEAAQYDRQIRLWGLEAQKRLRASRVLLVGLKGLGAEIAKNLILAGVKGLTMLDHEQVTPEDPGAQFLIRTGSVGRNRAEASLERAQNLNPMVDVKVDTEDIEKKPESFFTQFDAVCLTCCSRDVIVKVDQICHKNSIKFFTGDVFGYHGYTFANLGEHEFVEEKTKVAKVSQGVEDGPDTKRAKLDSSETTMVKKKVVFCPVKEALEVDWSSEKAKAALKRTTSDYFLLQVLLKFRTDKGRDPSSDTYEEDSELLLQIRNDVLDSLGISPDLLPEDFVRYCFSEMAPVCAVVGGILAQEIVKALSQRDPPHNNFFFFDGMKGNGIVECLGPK
Compound,Percent Inhibition,pIC50
"COCc1sc(C(=O)c2cncnc2N[C@@H]2C[C@H](COS(N)(=O)=O)[C@@H](O)C2)cc1C(O)c1cccc(Cl)c1 (single isomer, unassigned) [I-7b, [(1R,2S,4R)-4-{[5-({4-[(R)-(3-chlorophenyl)(hydroxy)methyl]-5-(methoxymethyl)-2-thienyl}carbonyl)pyrimidin-4-yl]amino}-2-hydroxycyclopentyl]methyl sulfamate or [(1R,2S,4R)-4-{[5-({4-[(S)-(3-chlorophenyl)(hydroxy)methyl]-5-(methoxymethyl)-2-thienyl}carbonyl)pyrimidin-4-yl]amino}-2-hydroxycyclopentyl]methyl sulfamate]",98,> 8.00
"CC(N)(c1cccc(Cl)c1)c1csc(C(=O)c2cncnc2N[C@@H]2C[C@H](COS(N)(=O)=O)[C@@H](O)[C@H]2O)c1 (single isomer, unassigned) [I-8a, [(1R,2R,3S,4R)-4-{[5-({4-[(1S)-1-amino-1-(3-chlorophenyl)ethyl]-2-thienyl}carbonyl)pyrimidin-4-yl]amino}-2,3-dihydroxycyclopentyl]methyl sulfamate or [(1R,2R,3S,4R)-4-{[5-({4-[(1R)-1-amino-1-(3-chlorophenyl)ethyl]-2-thienyl}carbonyl)pyrimidin-4-yl]amino}-2,3-dihydroxycyclopentyl]methyl sulfamate]",96,> 8.00
"CC(N)(c1cccc(Cl)c1)c1csc(C(=O)c2cncnc2N[C@@H]2C[C@H](COS(N)(=O)=O)[C@@H](O)[C@H]2O)c1 (single isomer, unassigned) [I-8b, [(1R,2R,3S,4R)-4-{[5-({4-[(1S)-1-amino-1-(3-chlorophenyl)ethyl]-2-thienyl}carbonyl)pyrimidin-4-yl]amino}-2,3-dihydroxycyclopentyl]methyl sulfamate or [(1R,2R,3S,4R)-4-{[5-({4-[(1R)-1-amino-1-(3-chlorophenyl)ethyl]-2-thienyl}carbonyl)pyrimidin-4-yl]amino}-2,3-dihydroxycyclopentyl]methyl sulfamate]",99,> 8.00
"NS(=O)(=O)OC[C@H]1C[C@@H](Nc2ncncc2C(=O)c2cc([C@H](O)c3cccc(Cl)c3)c(Cl)s2)C[C@@H]1O (single isomer, unassigned) [I-9a, [(1R,2S,4R)-4-{[5-({5-chloro-4-[(R)-(3-chlorophenyl)(hydroxy)methyl]-2-thienyl}carbonyl)pyrimidin-4-yl]amino}-2-hydroxycyclopentyl]methyl sulfamate or [(1R,2S,4R)-4-{[5-({5-chloro-4-[(S)-(3-chlorophenyl)(hydroxy)methyl]-2-thienyl}carbonyl)pyrimidin-4-yl]amino}-2-hydroxycyclopentyl]methyl sulfamate]",99,> 8.00
"NS(=O)(=O)OC[C@H]1C[C@@H](Nc2ncncc2C(=O)c2cc([C@H](O)c3cccc(Cl)c3)c(Cl)s2)C[C@@H]1O (single isomer, unassigned) [I-9b, [(1R,2S,4R)-4-{[5-({5-chloro-4-[(R)-(3-chlorophenyl)(hydroxy)methyl]-2-thienyl}carbonyl)pyrimidin-4-yl]amino}-2-hydroxycyclopentyl]methyl sulfamate or [(1R,2S,4R)-4-{[5-({5-chloro-4-[(S)-(3-chlorophenyl)(hydroxy)methyl]-2-thienyl}carbonyl)pyrimidin-4-yl]amino}-2-hydroxycyclopentyl]methyl sulfamate]",97,> 8.00
"N[C@@H](c1cccc(Br)n1)c1cc(C(=O)c2cncnc2N[C@@H]2C[C@H](COS(N)(=O)=O)[C@@H](O)[C@H]2O)sc1Cl (single isomer, unassigned) [I-10a, [(1R,2R,3S,4R)-4-{[5-({4-[(R)-amino(6-bromopyridin-2-yl)methyl]-5-chloro-2-thienyl}carbonyl)pyrimidin-4-yl]amino}-2,3-dihydroxycyclopentyl]methyl sulfamate or [(1R,2R,3S,4R)-4-{[5-({4-[(S)-amino(6-bromopyridin-2-yl)methyl]-5-chloro-2-thienyl}carbonyl)pyrimidin-4-yl]amino}-2,3-dihydroxycyclopentyl]methyl sulfamate]",100,> 8.00
"N[C@@H](c1cccc(Br)n1)c1cc(C(=O)c2cncnc2N[C@@H]2C[C@H](COS(N)(=O)=O)[C@@H](O)[C@H]2O)sc1Cl (single isomer, unassigned) [I-10b, [(1R,2R,3S,4R)-4-{[5-({4-[(R)-amino(6-bromopyridin-2-yl)methyl]-5-chloro-2-thienyl}carbonyl)pyrimidin-4-yl]amino}-2,3-dihydroxycyclopentyl]methyl sulfamate or [(1R,2R,3S,4R)-4-{[5-({4-[(S)-amino(6-bromopyridin-2-yl)methyl]-5-chloro-2-thienyl}carbonyl)pyrimidin-4-yl]amino}-2,3-dihydroxycyclopentyl]methyl sulfamate]",97,> 8.00
"Cc1sc(C(=O)c2cncnc2N[C@@H]2C[C@H](COS(N)(=O)=O)[C@@H](O)C2)cc1[C@H](O)c1cccc(Cl)c1 (single isomer, unassigned) [I-11a, [(1R,2S,4R)-4-{[5-({4-[(R)-(3-chlorophenyl)(hydroxy)methyl]-5-methyl-2-thienyl}carbonyl)pyrimidin-4-yl]amino}-2-hydroxycyclopentyl]methyl sulfamate or [(1R,2S,4R)-4-{[5-({4-[(S)-(3-chlorophenyl)(hydroxy)methyl]-5-methyl-2-thienyl}carbonyl)pyrimidin-4-yl]amino}-2-hydroxycyclopentyl]methyl sulfamate]",93,> 8.00
"Cc1sc(C(=O)c2cncnc2N[C@@H]2C[C@H](COS(N)(=O)=O)[C@@H](O)C2)cc1[C@H](O)c1cccc(Cl)c1 (single isomer, unassigned) [I-11b, [(1R,2S,4R)-4-{[5-({4-[(R)-(3-chlorophenyl)(hydroxy)methyl]-5-methyl-2-thienyl}carbonyl)pyrimidin-4-yl]amino}-2-hydroxycyclopentyl]methyl sulfamate or [(1R,2S,4R)-4-{[5-({4-[(S)-(3-chlorophenyl)(hydroxy)methyl]-5-methyl-2-thienyl}carbonyl)pyrimidin-4-yl]amino}-2-hydroxycyclopentyl]methyl sulfamate]",99,> 8.00
"C[C@](N)(c1cccc(Cl)c1)c1csc(C(=O)c2cncnc2N[C@@H]2C[C@H](COS(N)(=O)=O)[C@@H](O)C2)c1 (single isomer, unassigned) [I-12a, [(1R,2S,4R)-4-{[5-({4-[(1S)-1-amino-1-(3-chlorophenyl)ethyl]-2-thienyl}carbonyl)pyrimidin-4-yl]amino}-2-hydroxycyclopentyl]methyl sulfamate or [(1R,2S,4R)-4-{[5-({4-[(1R)-1-amino-1-(3-chlorophenyl)ethyl]-2-thienyl}carbonyl)pyrimidin-4-yl]amino}-2-hydroxycyclopentyl]methyl sulfamate]",84,7.00 to 8.00

# — patent US10780090B2, “Heteroaryl compounds useful as inhibitors of SUMO activating enzyme” (Millennium Pharmaceuticals, Inc., priority 2014, dated 2020)
